Columns and labels:
[1] = Acute toxicity in mice; assay type: in vivo, ICR mice; settings: for Acute toxicity LD50: ICR mouse, male
Protocol: Each compound was suspended in 1% carboxymethylcellulose (CMC), and orally and abdominally administered to 6-week-old male ICR mice. […] Then, an autopsy was performed on the mice.

[2] = tested on: Candida albicans ATCC 10231; test: In vitro antifungal activity (MIC), NCCLS method; assay type: cell-based; settings: 48 hours
Procedure, shortened: (§1)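 ATCC reference strains tested by NCCLS MIC method. Final inoculum 5×10^2 to 2.5×10^3 cell/mL over a two-fold dilution series; 48 h incubation.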

[3] = tested on: Aspergillus flavus ATCC 64025; test: In vitro antifungal activity (MIC), NCCLS method; assay type: cell-based; settings: 48 hours
Procedure, shortened: as §1

[4] = tested on: Candida parapsilosis ATCC 34136; test: In vitro antifungal activity (MIC), NCCLS method; assay type: cell-based; settings: Candida parapsilosis ATCC 34136; 48 hours
Procedure, shortened: as §1

[5] = tested on: Candida albicans A207 (clinical isolate); test: In vitro antifungal activity (MIC), NCCLS method; assay type: cell-based; settings: 48 hours
Procedure, shortened: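 According to NCCLS guidance, each compound is diluted two-fold and challenged with a fungal inoculum of 5×10^2 to 2.5×10^3 cell/mL (final). Incubation lasts 48 hours.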

[6] = tested on: Candida lusitaniae ATCC 42720; test: In vitro antifungal activity (MIC), NCCLS method; assay type: cell-based; settings: 48 hours
Procedure, shortened: as §1

[7] = tested on: Candida glabrata ATCC 48435; test: In vitro antifungal activity (MIC), NCCLS method; assay type: cell-based; settings: Candida glabrata ATCC 48435; 48 hours
Procedure, shortened: as §1

[8] = tested on: Aspergillus terreus ATCC 46941; test: In vitro antifungal activity (MIC), NCCLS method; assay type: cell-based; settings: 48 hours
Procedure, shortened: as §1

[9] = tested on: Aspergillus fumigatus ATCC 16424; test: In vitro antifungal activity (MIC), NCCLS method; assay type: cell-based; settings: 48 hours
Procedure, shortened: as §1

[10] = tested on: Mucor ramosissimus ATCC 90286; test: In vitro antifungal activity (MIC), NCCLS method; assay type: cell-based; settings: 48 hours
Procedure, shortened: as §1

[11] = tested on: Cryptococcus neoformans ATCC 36556; test: In vitro antifungal activity (MIC), NCCLS method; assay type: cell-based; settings: RPMI 1640 medium, 72 hours
Procedure, shortened: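 Broth microdilution per NCCLS: two-fold serial dilutions of test compound inoculated with fungal suspension at a final 5×10^2 to 2.5×10^3 cell/mL. Strains other than Cryptococcus neoformans were incubated 48 hours before MIC reading.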

[12] = tested on: Candida tropicalis ATCC 13803; test: In vitro antifungal activity (MIC), NCCLS method; assay type: cell-based; settings: 48 hours
Procedure, shortened: as §1

[13] = tested on: Candida krusei ATCC 6258; test: In vitro antifungal activity (MIC), NCCLS method; assay type: cell-based; settings: 48 hours
Procedure, shortened: as §1

[14] = molecular target: T1, chitin synthase 1 of Candida albicans chs2 Δ chs 3 Δ (Candida albicans, UniProt P23316); test: In vitro enzyme assay for chitin synthase 1 of Candida albicans (enzyme 1); assay type: biochemical; settings: relative to polyoxin D (50% inhibitory activity = value 5)
T1 construct: Crude enzyme was prepared using the Candida albicans chs2 Δ chs 3 Δ mutant; endogenous in cells; host or cells: Candida albicans chs2Δ/chs2Δ chs3Δ/chs3Δ mutant; 130,000 x g membrane pellet
T1 sequence (P23316 whole entry, stated change not applied): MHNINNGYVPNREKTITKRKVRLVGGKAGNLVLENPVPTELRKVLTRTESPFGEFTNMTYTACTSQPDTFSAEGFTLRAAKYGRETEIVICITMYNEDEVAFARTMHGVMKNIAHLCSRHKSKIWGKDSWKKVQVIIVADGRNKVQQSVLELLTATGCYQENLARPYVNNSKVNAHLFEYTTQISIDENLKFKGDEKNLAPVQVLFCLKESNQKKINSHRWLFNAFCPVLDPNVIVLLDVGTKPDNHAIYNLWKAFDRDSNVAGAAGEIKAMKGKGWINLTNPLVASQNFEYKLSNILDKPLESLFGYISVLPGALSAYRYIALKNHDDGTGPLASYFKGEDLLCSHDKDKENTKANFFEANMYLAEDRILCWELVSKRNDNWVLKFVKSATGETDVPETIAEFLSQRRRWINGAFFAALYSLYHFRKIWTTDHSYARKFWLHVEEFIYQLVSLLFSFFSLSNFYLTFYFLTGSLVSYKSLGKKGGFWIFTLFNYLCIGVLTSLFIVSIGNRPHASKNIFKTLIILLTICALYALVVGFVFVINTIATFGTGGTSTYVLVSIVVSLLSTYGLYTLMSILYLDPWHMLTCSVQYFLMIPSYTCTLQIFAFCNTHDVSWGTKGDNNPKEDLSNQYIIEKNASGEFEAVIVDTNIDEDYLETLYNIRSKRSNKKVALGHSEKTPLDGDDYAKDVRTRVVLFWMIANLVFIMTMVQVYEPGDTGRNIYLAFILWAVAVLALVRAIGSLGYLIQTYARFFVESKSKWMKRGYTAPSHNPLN
Procedure, shortened: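 Trypsin-activated crude membrane chitin synthase 1 from C. albicans chs2Δ chs3Δ was incubated 90 min at 30 °C with 1.1 mM UDP-[14C]GlcNAc and 2 mM cobalt acetate in Tris-HCl pH 7.5. Filtered TCA precipitate was counted by scintillation; values are scores 1–8 against polyoxin D (5 = same concentration).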

[15] = molecular target: T2, chitin synthase 2 of Saccharomyces cerevisiae ECY38-38A(pAS6) (Saccharomyces cerevisiae, UniProt P14180); test: In vitro enzyme assay for chitin synthase 2 of Saccharomyces cerevisiae (enzyme 2); assay type: biochemical; settings: relative to polyoxin D (50% inhibitory activity = value 5)
T2 construct: made in house; host or cells: Saccharomyces cerevisiae ECY38-38A (chs1-23 chs2::LEU2 cal1/csd2) carrying plasmid pAS6, grown in galactose medium; 130,000 x g membrane pellet
T2 sequence (P14180 whole entry): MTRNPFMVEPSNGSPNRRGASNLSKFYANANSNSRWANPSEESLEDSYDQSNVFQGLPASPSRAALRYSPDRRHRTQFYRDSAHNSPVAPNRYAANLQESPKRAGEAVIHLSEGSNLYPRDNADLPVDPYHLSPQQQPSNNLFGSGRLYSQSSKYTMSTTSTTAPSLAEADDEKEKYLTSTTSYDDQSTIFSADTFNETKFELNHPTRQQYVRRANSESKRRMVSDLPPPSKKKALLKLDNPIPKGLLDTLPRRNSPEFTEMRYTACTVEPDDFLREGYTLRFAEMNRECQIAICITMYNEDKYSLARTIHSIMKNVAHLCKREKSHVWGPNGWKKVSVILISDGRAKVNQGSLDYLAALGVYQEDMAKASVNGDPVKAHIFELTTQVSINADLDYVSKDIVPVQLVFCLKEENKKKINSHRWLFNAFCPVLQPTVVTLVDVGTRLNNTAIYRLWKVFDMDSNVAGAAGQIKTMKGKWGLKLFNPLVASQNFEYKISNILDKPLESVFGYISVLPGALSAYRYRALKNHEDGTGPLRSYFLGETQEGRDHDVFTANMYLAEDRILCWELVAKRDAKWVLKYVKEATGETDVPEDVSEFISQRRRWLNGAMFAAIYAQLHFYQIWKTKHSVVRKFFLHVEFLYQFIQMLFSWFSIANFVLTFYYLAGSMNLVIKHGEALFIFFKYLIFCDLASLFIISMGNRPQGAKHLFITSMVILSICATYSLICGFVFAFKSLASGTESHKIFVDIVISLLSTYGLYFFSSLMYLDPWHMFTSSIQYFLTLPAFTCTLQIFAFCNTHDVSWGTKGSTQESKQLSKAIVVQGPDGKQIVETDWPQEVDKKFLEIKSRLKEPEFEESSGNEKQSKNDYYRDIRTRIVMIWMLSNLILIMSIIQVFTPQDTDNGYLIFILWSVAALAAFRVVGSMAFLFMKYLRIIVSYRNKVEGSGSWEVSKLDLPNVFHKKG
Procedure, shortened: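 Values are scores: 5 means 50% inhibition at the same concentration as polyoxin D, lower scores 2- to 16-fold higher concentration, higher scores ½ to ⅛. Radiolabel from 1.1 mM UDP-[14C]-GlcNAc was incorporated into TCA-insoluble chitin over 90 min at 30 °C (pH 7.5 Tris, 2 mM Co2+). The enzyme was a trypsin-activated membrane fraction from CHS2-only S. cerevisiae ECY38-38A(pAS6).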

[16] = tested on: chitin synthases; test: Inhibitory activity against the chitin synthases (summary statements); assay type: biochemical
From the text: The inhibitory activities against the chitin synthase 1 of Candida albicans chs2 Δ chs 3 Δ (abbreviated as ‘enzyme 1’) and the chitin synthase 2 of Saccharomyces cerevisiae ECY38-38A(pAS6)(abbreviated as ‘enzyme 2’) was examined for compound Nos. 1 to 70 compound and polyoxin D, a positive control compound.
The inhibitory activity against the chitin synthase 1 prepared from Candida albicans and the chitin synthase 2 prepared from Saccharomyces cerevisiae were examined as follows. A reaction mixture containing 32 mM Tris-HCl (pH 7.5), 2 mM cobalt acetate, 1.1 mM UDP-[U-^14C]-N-acetyl-d-glucosamine (GlcNAc) (400,000 cpm/μmol), 2 μL of trypsin (0.75 mg/mL), 20 μL of each crude enzyme and 14 μL of each test sample was kept at 30° C. for 15 minutes to activate the enzyme. Then, 2 μL of trypsin inhibitor (1.5 mg/mL) was added and the mixture was kept in an ice bath for 10 minutes to deactivate trypsin. 2 μL of 0.8 M N-acetyl-d-glucosamine was added to a total volume of 50 μL and reaction was performed at 30° C. for 90 minutes. The reaction was stopped using 1 mL of 10% TCA solution and the reaction solution was filtered with a GF/C filter and dried at room temperature. After adding 3 mL of a scintillation cocktail solution, the amount of isotopes was measured using a liquid scintillation counter. Percentage inhibition against each enzyme was calculated by the following Equation 1.

[17] = tested on: human pathogenic fungi; test: Antifungal activity against human pathogenic fungi (summary statements); assay type: cell-based
From the text: Candida albicans ATCC 10231, Candida lusitaniae ATCC 42720, Candida krusei ATCC 6258, Candida tropicalis ATCC 13803, Candida glabrata ATCC 48435, Candida parapsilosis ATCC 34136, Cryptococcus neoformans ATCC 36556, Aspergillus fumigatus ATCC 16424, Aspergillus flavus ATCC 64025, Aspergillus terreus ATCC 46941 and Mucor ramosissimus ATCC 90286 strains for the MIC (minimum inhibitory concentration) measurement were obtained from ATCC (American Type Culture Collection) in the U.S. The Candida albicans A207(clinical isolate) strain was used by isolating it from the patients.
The determination of MIC was performed according to the NCCLS (National Committee for Clinical Laboratory Standard) method. Each test sample solution was diluted two-fold and inoculated with a fungal suspension to reach a final inoculum size of 5×10^2 to 2.5×10^3 cell/mL. The Cryptococcus neoformans strain was cultured in the RPMI 1640 medium for 72 hours. Other strains were cultured for 48 hours.

| Substance | Acute toxicity LD50 ([1]; abdominal) [mg/kg] | Acute toxicity LD50 ([1]; oral) [mg/kg] | MIC (minimum inhibitory concentration) [2] [µg/mL] | MIC (minimum inhibitory concentration) [3] [µg/mL] | MIC (minimum inhibitory concentration) [4] [µg/mL] | MIC (minimum inhibitory concentration) [5] [µg/mL] | MIC (minimum inhibitory concentration) [6] [µg/mL] | MIC (minimum inhibitory concentration) [7] [µg/mL] | MIC (minimum inhibitory concentration) [8] [µg/mL] | MIC (minimum inhibitory concentration) [9] [µg/mL] | MIC (minimum inhibitory concentration) [10] [µg/mL] | MIC (minimum inhibitory concentration) [11] [µg/mL] | MIC (minimum inhibitory concentration) [12] [µg/mL] | MIC (minimum inhibitory concentration) [13] [µg/mL] | Relative activity Enzyme 1 [14] | Relative activity Enzyme 2 [15] | inhibitory activities against the chitin synthases (in words) [16] | antifungal activities compared with amphotericin B (in words) [17] | other results |
| --- | --- | --- | --- | --- | --- | --- | --- | --- | --- | --- | --- | --- | --- | --- | --- | --- | --- | --- | --- |
| 13-(4-tert-Butylbenzyl)-9-O-butylberberrubine iodide [Compound No. 8] | >15 | >1000 | 0.5 | 8 | 4 | 0.5 | 1 | 4 | 8 | 2 | 4 | 1 | 0.25 | 2 | 4 (Compounds having the inhibitory activity at 2-fold, 4-fold, 8-fold and 16-fold higher concentrations than that of polyoxin D were given the values of 4, 3, 2 and 1, respectively) | 7 (compounds having the inhibitory activity at ½, ¼ and ⅛ lower concentrations than that of polyoxin D were given the values of 6, 7 and 8, respectively) | exceptionally superior inhibitory activities | comparable to that of amphotericin B | deaths ([1]; mice, oral administration dosage of 1,000 mg/kg): no case of death observed; Autopsy findings ([1]; mouse, in vivo): Nothing; general symptoms and body weight ([1]; mouse, in vivo): no abnormalities; Autopsy findings ([1]; mouse, in vivo, po): Nothing |
| 13-(4-Isopropylbenzyl)-9-O-butylberberrubine chloride [Compound No. 50] | >15 | >1000 | 0.5 | 8 | 4 | 0.5 | 0.5 | 4 | 8 | 2 | 4 | 1 | 0.25 | 1 | 4 (Compounds having the inhibitory activity at 2-fold, 4-fold, 8-fold and 16-fold higher concentrations than that of polyoxin D were given the values of 4, 3, 2 and 1, respectively) | 7 (compounds having the inhibitory activity at ½, ¼ and ⅛ lower concentrations than that of polyoxin D were given the values of 6, 7 and 8, respectively) | exceptionally superior inhibitory activities | comparable to that of amphotericin B |  |
| 13-(4-tert-Butylbenzyl)-9-O-propylberberrubine iodide [Compound No. 7] |  |  | 1 | 8 | 4 | 1 | 2 | 4 | 8 | 4 | 4 | 2 | 0.5 | 2 | 4 (Compounds having the inhibitory activity at 2-fold, 4-fold, 8-fold and 16-fold higher concentrations than that of polyoxin D were given the values of 4, 3, 2 and 1, respectively) | 7 (compounds having the inhibitory activity at ½, ¼ and ⅛ lower concentrations than that of polyoxin D were given the values of 6, 7 and 8, respectively) | exceptionally superior inhibitory activities | comparable to that of amphotericin B |  |
| 13-(4-Isopropylbenzyl)-9-O-butylberberrubine iodide [Compound No. 18] |  |  | 0.5 | 8 | 4 | 0.5 | 1 | 4 | 8 | 2 | 4 | 1 | 0.25 | 1 | 4 (Compounds having the inhibitory activity at 2-fold, 4-fold, 8-fold and 16-fold higher concentrations than that of polyoxin D were given the values of 4, 3, 2 and 1, respectively) | 7 (compounds having the inhibitory activity at ½, ¼ and ⅛ lower concentrations than that of polyoxin D were given the values of 6, 7 and 8, respectively) | exceptionally superior inhibitory activities | comparable to that of amphotericin B |  |

Reference: patent US7915276B2, “Berberrubine derivatives having antifungal activities” (priority 2006, dated 2011)
